Results on nine compounds are retold here after publication PMC6222791, “(−)-Asarinin from the Roots of Asarum sieboldii Induces Apoptotic Cell Death via Caspase Activation in Human Ovarian Cancer Cells” (Molecules : A Journal of Synthetic Chemistry and Natural …, 2018).

The IC50 is the point on the concentration scale where inhibition reaches its midpoint.

Series [1] relates to A2780 cells. Description: MTT cytotoxicity assay, A2780. The class given is cell-based. Particulars: Homo sapiens, read-out: IC50 (cytotoxicity). On the technique in general: Tetrazolium assays rely on reduction of a dye to a coloured formazan, in cell work by metabolically active cells.
Series [2] deals with EBV-EA activation. Also on record: method as in PMID 9255419, doi:10.1016/S1572-5995(00)80047-2. Particulars: Raji cells; cited from earlier work.
Series [3] relates to SKOV3 cells. Description: MTT cytotoxicity assay, SKOV3. The class given is cell-based. Particulars: Homo sapiens, read-out: IC50 (cytotoxicity).
In series [4] the test system is SKOV3 cells. Description: Cell cycle analysis (PI staining, flow cytometry), SKOV3. The format is cell-based, human. Particulars: SKOV3, 48 h. As to the method: (§1) The cells were treated with (−)-asarinin (1) and incubated for 48 h. At the time of collection, the cells were harvested and washed twice with ice-cold phosphate buffered saline (PBS). The cells were fixed and permeabilized with 70% ice-cold ethanol at −20 °C for 4 h. The cells were washed once with PBS and resuspended in a staining solution containing propidium iodide (50 µg/mL) and RNase A (5 mg/mL). The cell suspensions were incubated for 30 min at room temperature in a dark place. After 30 min the suspensions were analyzed by fluorescence-activated cell sorting (FACS) cater-plus flow cytometry (guava easy cyte^TM, Merk Millipore, Darmstadt, Germany) using 5000 cells per group.
A general note: Flow cytometry measures light scatter and fluorescence of single cells or particles in a stream.

Series [5] deals with human leukemia HL-60 cells. Set-up: method as in PMID 11507740. Particulars: cited from earlier work.
Series [6] has as its system SKOV3 cells. Description: PI/Annexin V-FITC double staining, SKOV3. The format is cell-based, human. Particulars: SKOV3, 48 h, increased by up to. As to the method: (§2) Annexin V- FITC was obtained from BD Biosciences (San Jose, CA, USA). The cells were treated with (−)-asarinin (1) and incubated for 48 h. The cells were rinsed twice with ice-cold PBS and suspended with 100 μL of binding buffer (10 mM HEPES/NaOH, 140 mM Nacl, 2.5 mM CaCl2, PH 7.4). A total of 5 μL of FITC-conjugated annexin V and 5 μL of PI ([…]) were added into the cell suspension, and the mixture was incubated in a dark place at room temperature for 15 min. The cells were analyzed using FACS cater-plus flow cytometry (guava easy cyte^TM); at least 10,000 cells per each group were counted.

Series [7] relates to caspase-8. Put plainly: Western blot caspase activation, A2780. The class given is cell-based, human. Particulars: A2780, 48 h, procaspase level by Western blot. How it is done: (§3) The cells were treated with (−)-asarinin (1) and incubated for 48 h. The cells were rinsed twice with ice-cold PBS and lysed with protein lysis buffer (Intron Biotechnology, Seoul, Korea) containing protease inhibitors (0.5 mM PMSF and 5 μg/mL aprotinin). The lysates were mixed with 5X sodium dodecyl sulfate (SDS) sample buffer and boiled for 5 min for denaturation. Total protein was run on 10–12% SDS-PAGE gels and electrotransferred onto a polyvinylidene difluoride (PVDF) membrane. The membrane was immunoblotted using specific primary antibodies overnight at 4 °C following blocking with 5% non-fat dry milk for 30 min–1 h. After washing, the membrane was incubated with horseradish peroxidase-conjugated secondary antibody (1:1000–2000) at room temperature for 1−2 h. After washing, immunepositive bands were visualized using an ECL chemiluminescent system and analyzed by Image Quant LAS-4000 (Fujifilm Life science, Tokyo, Japan). Anti-caspase-3 and b-actin antibodies were obtained from Santa Cruz Biotechnology (Santa Cruz, CA, USA). Caspase-9 antibody was purchased from Cell Signaling (Beverly, MA, USA). Caspase-8 antibody was obtained from BD Biosciences (San Jose, CA, USA).
Background: In western blotting, separated proteins are transferred to a membrane and probed.

Series [8] concerns caspase-9. Description: Western blot caspase activation, A2780. The class given is cell-based, human. Particulars: A2780, 48 h, procaspase level by Western blot. How it is done: as §3
In series [9] the test system is caspase-3. Description: Western blot caspase activation, A2780. The class given is cell-based, human. Particulars: A2780, 48 h, procaspase level by Western blot. How it is done: as §3
The test system of series [10] is A2780 cells. Description: PI/Annexin V-FITC double staining, A2780. The format is cell-based, human. Particulars: A2780, 48 h, increased by up to. As to the method:
as §2

The test system of series [11] is caspase-8. Put plainly: Western blot caspase activation, SKOV3. Particulars: SKOV3, 48 h, procaspase level by Western blot. The format is cell-based, human. How it is done: as §3
In series [12] the test system is caspase-9. Put plainly: Western blot caspase activation, SKOV3. The class given is cell-based, human. Particulars: SKOV3, 48 h, procaspase level by Western blot. As to the method: as §3
In series [13] the test system is caspase-3. Put plainly: Western blot caspase activation, SKOV3. The format is cell-based, human. Particulars: SKOV3, 48 h, procaspase level by Western blot. How it is done:
as §3

For series [14], the system named is IOSE80PC cells. Put plainly: in vitro. How it is done:
(§4) Human ovarian cancer cell lines (A2780 and SKOV3 cells) were obtained from the American Type Culture Collection (ATCC), and immortalized ovarian surface epithelial cell lines (IOSE80PC) were provided by Dr. N. Auersperg (University of British Columbia, Vancouver, British Columbia, Canada) and Dr. A. Godwin (Fox Chase Cancer Center, Philadelphia, PA, USA).
(§5) A MTT assay was performed to evaluate the cell viability. The MTT was obtained from Molecular Probes Inc. (Eugene, OR, USA). Briefly, the cells (1.0 × 10^5/well) were seeded in a 96-well plate and incubated for 24 h. […] MTT solution was added into each well (final concentration; 0.5 mg/mL) and the plates were incubated for an additional 4 h. The medium was removed and 50 μL of dimethyl sulfoxide (DMSO) was added. The optical density was measured at 540 nm using a microplate spectrophotometer (SpectraMax; Molecular Devices, Sunnyvale, CA, USA). To investigate the involvement of caspases in asarinin (1)-induced cell death, a MTT assay was also performed using caspase inhibitors. The cells were pretreated with caspase inhibitors (50 μM) for 30 min, and treated with (−)-asarinin (1) (A2780, 40 μM; and SKOV3, 60 μM) for 48 h. Caspase-3 inhibitor z-DEVD-fmk, caspase-8 inhibitor z-IETD-fmk, and caspase-9 inhibitor z-LEHD-fmk were purchased from Calbiochem (Bad Soden, Germany).

Series [15] is described as follows: in vitro. Particulars: human. How it is done:
as §4, §5

The test system of series [16] is A2780 cells. Description: Cell cycle analysis (PI staining, flow cytometry), A2780. The format is cell-based, human. Particulars: A2780, 48 h. As to the method:
as §1

For series [17], the system named is A2780 cells. Description: MTT assay with caspase inhibitors on (−)-asarinin (1)-induced cell death, A2780. The class given is cell-based, human. Particulars: A2780, inhibitor 50 μM pretreated 30 min, then (−)-asarinin (1) 40 μM 48 h.
The subject of series [18] is SKOV3 cells. Description: MTT assay with caspase inhibitors on (−)-asarinin (1)-induced cell death, SKOV3. Particulars: SKOV3, inhibitor 50 μM pretreated 30 min, then (−)-asarinin (1) 60 μM 48 h. The format is cell-based, human.
Setting [19] is: IOSE80PC immortalized ovarian surface epithelial cells.

Where two headings read alike, the source gives them in different places.

`c1cc2c(cc1[C@H]1OC[C@H]3[C@@H]1CO[C@H]3c1ccc3c(c1)OCO3)OCO2` [Compound 1, (−)-asarinin]: the IC50 in series [1] (A2780, 48 h) was 38.5 ± 2.78 µM; in [3] (SK-OV-3, 48 h), 60.9 ± 5.01 µM. In addition, the “effect on EBV-EA activation” value in series [2] is “significant inhibitory effect”. Also, the cell cycle arrest entry in [4] and in [16] was “failed to induce cell cycle arrest” throughout. Besides, the DNA synthesis entry in series [5] is reported as “inhibited DNA synthesis”. For the same compound, the “percentage of Annexin V-FITC positive/PI negative cells” value was at most 48% in series [6] and “up to 43%” in series [10]. The “activation of caspase-8” value in series [7] and in series [11] was “markedly stimulated the activation” each time. The “activation of caspase-9” value in series [8] and in series [12] was “markedly stimulated the activation” in each case. The “activation of caspase-3” value in series [9] and in series [13] was “markedly stimulated the activation” each time. The “cytotoxicity (in words)” value in series [14] is listed as “did not show any cytotoxicity”. In series [15], this compound came in with an IC50 at 48 h above 200 µM.
Regarding `COc1cc([C@@H]2OC[C@@H]3[C@H]2CO[C@H]3c2ccc3c(c2)OCO3)ccc1O` [Compound 2, (−)-pluviatilol], the IC50 is 102 ± 13.6 µM in series [1] (A2780, MTT, 48 h) and 174 ± 9.42 µM in series [3] (SK-OV-3, SKOV3, MTT, 48 h). In addition, half-maximal inhibition in series [15] (setting [19]) (IC50 at 48 h) required 179 ± 3.3 µM.
On to `CCC(=O)c1cc2c(cc1O)OCO2` [Compound 3, kakuol], for which the IC50 in series [1] (A2780, 48 h) was above 200 µM; in [3] (SK-OV-3, 48 h), above 200 µM. In addition, the IC50 at 48 h in series [15] was above 200 µM.
On to `CCC(=O)c1cc2c(cc1OC)OCO2` [Compound 4, methylkakuol], for which the half-maximal inhibitory concentration (IC50) in [1] (A2780, 48 h) is above 200 µM; in series [3] (SK-OV-3, 48 h) it was above 200 µM. Further, in [15], the IC50 at 48 h is above 200 µM.
For the compound `C/C=C\CC/C=C/C=C/C(=O)NCC(C)C` [Compound 7, (2E,4E,8Z)-N-isobutyldeca-2,4,8-trienamide], the IC50 is above 200 µM in [1] (A2780, MTT, 48 h) and above 200 µM in [3] (SK-OV-3, SKOV3, MTT, 48 h). The same compound showed an IC50 at 48 h in series [15] (setting [19]) above 200 µM.
Consider `C/C=C/C=C\CC/C=C/C=C/C(=O)NCC(C)C` [Compound 8, (2E,4E,8Z,10E/Z)-N-isobutyldodeca-2,4,8,10-tetraenamide], for which the IC50 was 101 ± 10.3 µM in [1] (A2780, MTT, 48 h) and above 200 µM in [3] (SK-OV-3, SKOV3, MTT, 48 h). In addition, in series [15] (setting [19]), the IC50 at 48 h is above 200 µM.
Regarding z-DEVD-fmk, the “effect on (−)-asarinin (1)-induced cell death” value (“effect on (−)-asarinin” below) in series [17] and in [18] was “considerably attenuated” each time.
For the compound z-IETD-fmk, the “effect on (−)-asarinin” value in series [17] and in [18] was “considerably attenuated” each time.
For z-LEHD-fmk, the “effect on (−)-asarinin” value in [17] and in series [18] was “considerably attenuated” in each case.
